From PubChem BioAssay AID2060494 (Molecular Pharmacology Branch, DTP, NCI, 2025)

Tested on: 435261-313-R-J1-PDC complex spheroid viability
Assay: Anticancer human tumor 435261-313-R-J1-PDC patient-derived colon adenocarcinoma cell line growth inhibition [GQUAD]
Details: for IC50: curve of first compound; for viability, T/C: stronger effect = lower value
How it was run: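 Multi-cell-type spheroids of tumor cells with HUVEC and mesenchymal stem cells, treated with drug combinations. Concentrations descend in half-log steps from near clinical Cmax, or from 10 microM where Cmax is unknown; viability read-out.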

[1] = second compound 0.0316 µM, first compound 0.0316 µM
[2] = second compound 0.0316 µM, first compound 0.1 µM
[3] = second compound 0.0316 µM, first compound 0.316 µM
[4] = second compound 0.0316 µM, first compound 1 µM
[5] = second compound 0.0316 µM, first compound 3.16 µM
[6] = second compound 0.0316 µM, first compound 10 µM
[7] = second compound 0.1 µM, first compound 0.0316 µM
[8] = second compound 0.1 µM, first compound 0.1 µM
[9] = second compound 0.1 µM, first compound 0.316 µM
[10] = second compound 0.1 µM, first compound 1 µM
[11] = second compound 0.1 µM, first compound 3.16 µM
[12] = second compound 0.1 µM, first compound 10 µM
[13] = second compound 0.316 µM, first compound 0.0316 µM
[14] = second compound 0.316 µM, first compound 0.1 µM
[15] = second compound 0.316 µM, first compound 0.316 µM
[16] = second compound 0.316 µM, first compound 1 µM
[17] = second compound 0.316 µM, first compound 3.16 µM
[18] = second compound 0.316 µM, first compound 10 µM
[19] = second compound 1 µM, first compound 0.0316 µM
[20] = second compound 1 µM, first compound 0.1 µM
[21] = second compound 1 µM, first compound 0.316 µM
[22] = second compound 1 µM, first compound 1 µM
[23] = second compound 1 µM, first compound 3.16 µM
[24] = second compound 1 µM, first compound 10 µM
[25] = second compound 3.16 µM, first compound 0.0316 µM
[26] = second compound 3.16 µM, first compound 0.1 µM
[27] = second compound 3.16 µM, first compound 0.316 µM
[28] = second compound 3.16 µM, first compound 1 µM
[29] = second compound 3.16 µM, first compound 3.16 µM
[30] = second compound 3.16 µM, first compound 10 µM
[31] = second compound 10 µM, first compound 0.0316 µM
[32] = second compound 10 µM, first compound 0.1 µM
[33] = second compound 10 µM, first compound 0.316 µM
[34] = second compound 10 µM, first compound 1 µM
[35] = second compound 10 µM, first compound 3.16 µM
[36] = second compound 10 µM, first compound 10 µM
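Further: spheroids exposed to the agents for seven days before readout.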
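Wherever viability, T/C is given: percent of vehicle control viability with DMSO wells as 100%.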

Compound `C=CC(=O)N1CCN(c2nc(=O)n(-c3c(C)ccnc3C(C)C)c3nc(-c4c(O)cccc4F)c(F)cc23)C(C)C1` (stereo unspecified) + Cc1[nH]c2ccc(F)cc2c1-c1nc2c3cccnc3c3ncccc3c2[nH]1 has an IC50 (second compound 0.0316 µM) of over 10000 nM, an IC50 (second compound 0.1 µM) of over 10000 nM and an IC50 (second compound 0.316 µM) of over 10000 nM. It also gave an IC50 (second compound 1 µM) of over 10000 nM, an IC50 (second compound 3.16 µM) of under 31.6 nM and an IC50 (second compound 10 µM) of under 31.6 nM. It also gave a viability, T/C [1] of 98.7%, a viability, T/C [2] of 69.3% and a viability, T/C [3] of 116%. It also gave a viability, T/C [4] of 126%, a viability, T/C [5] of 127% and a viability, T/C [6] of 83.8%. The viability, T/C [7] was 85%, the viability, T/C [8] was 131% and the viability, T/C [9] was 92.8%. It also gave a viability, T/C [10] of 109%, a viability, T/C [11] of 129% and a viability, T/C [12] of 97.8%. It also gave a viability, T/C [13] of 97.6%, a viability, T/C [14] of 106% and a viability, T/C [15] of 88.7%. For the same compound, the viability, T/C [16] was 73.9%, the viability, T/C [17] was 122% and the viability, T/C [18] was 104%. For the same compound, the viability, T/C [19] was 78.4%, the viability, T/C [20] was 84% and the viability, T/C [21] was 74.2%. For the same compound, the viability, T/C [22] was 71.2%, the viability, T/C [23] was 61% and the viability, T/C [24] was 80.4%. The viability, T/C [25] was 41.5%, the viability, T/C [26] was 27.6% and the viability, T/C [27] was 28.1%. For the same compound, the viability, T/C [28] was 42.5%, the viability, T/C [29] was 54.2% and the viability, T/C [30] was 32%. For the same compound, the viability, T/C [31] was 22.4%, the viability, T/C [32] was 24.8% and the viability, T/C [33] was 24.8%. The viability, T/C [34] was 16.2%, the viability, T/C [35] was 28.3% and the viability, T/C [36] was 22.4%.

In the case of `CC1COCCN1c1cc(C2(S(C)(=N)=O)CC2)nc(-c2ccnc3[nH]ccc23)n1` (stereo unspecified) + Cc1[nH]c2ccc(F)cc2c1-c1nc2c3cccnc3c3ncccc3c2[nH]1, the IC50 (second compound 0.0316 µM) is reported as over 10000 nM, the IC50 (second compound 0.1 µM) is reported as over 10000 nM and the IC50 (second compound 0.316 µM) is reported as 3270 nM. The IC50 (second compound 1 µM) was 1280 nM, the IC50 (second compound 3.16 µM) was under 31.6 nM and the IC50 (second compound 10 µM) was under 31.6 nM. It also gave a viability, T/C [1] of 111%, a viability, T/C [2] of 85.9% and a viability, T/C [3] of 107%. For the same compound, the viability, T/C [4] was 60.5%, the viability, T/C [5] was 66% and the viability, T/C [6] was 52.2%. The viability, T/C [7] was 93%, the viability, T/C [8] was 106% and the viability, T/C [9] was 90.5%. It also gave a viability, T/C [10] of 83.7%, a viability, T/C [11] of 80.2% and a viability, T/C [12] of 55.4%. The viability, T/C [13] was 94.2%, the viability, T/C [14] was 127% and the viability, T/C [15] was 74.8%. It also gave a viability, T/C [16] of 106%, a viability, T/C [17] of 50.1% and a viability, T/C [18] of 47.9%. It also gave a viability, T/C [19] of 54.4%, a viability, T/C [20] of 65.6% and a viability, T/C [21] of 68%. It also gave a viability, T/C [22] of 52.6%, a viability, T/C [23] of 36.4% and a viability, T/C [24] of 30%. For the same compound, the viability, T/C [25] was 29.6%, the viability, T/C [26] was 37.1% and the viability, T/C [27] was 30.3%. For the same compound, the viability, T/C [28] was 28.9%, the viability, T/C [29] was 21.6% and the viability, T/C [30] was 12.2%. It also gave a viability, T/C [31] of 30.7%, a viability, T/C [32] of 22.6% and a viability, T/C [33] of 28.1%. For the same compound, the viability, T/C [34] was 18.4%, the viability, T/C [35] was 14.9% and the viability, T/C [36] was 8.85%.

`CC[C@@]1(O)C(=O)OCc2c1cc1n(c2=O)Cc2cc3c(CN(C)C)c(O)ccc3nc2-1` + Cc1[nH]c2ccc(F)cc2c1-c1nc2c3cccnc3c3ncccc3c2[nH]1 was tested, and the IC50 (second compound 0.0316 µM) was over 316 nM, the IC50 (second compound 0.1 µM) was over 316 nM and the IC50 (second compound 0.316 µM) was over 316 nM. For the same compound, the IC50 (second compound 1 µM) was over 316 nM, the IC50 (second compound 3.16 µM) was under 0.999 nM and the IC50 (second compound 10 µM) was under 0.999 nM. The viability, T/C (second compound 0.0316 µM, first compound 0.000999 µM) was 90.1%, the viability, T/C (second compound 0.0316 µM, first compound 0.00316 µM) was 76.8% and the viability, T/C (second compound 0.0316 µM, first compound 0.00999 µM) was 84.8%. For the same compound, the viability, T/C [1] was 74.6%, the viability, T/C (second compound 0.0316 µM, first compound 0.0999 µM) was 72.9% and the viability, T/C [3] was 69%. The viability, T/C (second compound 0.1 µM, first compound 0.000999 µM) was 106%, the viability, T/C (second compound 0.1 µM, first compound 0.00316 µM) was 74.9% and the viability, T/C (second compound 0.1 µM, first compound 0.00999 µM) was 108%. The viability, T/C [7] was 73.6%, the viability, T/C (second compound 0.1 µM, first compound 0.0999 µM) was 72.8% and the viability, T/C [9] was 59.8%. For the same compound, the viability, T/C (second compound 0.316 µM, first compound 0.000999 µM) was 89.3%, the viability, T/C (second compound 0.316 µM, first compound 0.00316 µM) was 80% and the viability, T/C (second compound 0.316 µM, first compound 0.00999 µM) was 114%. For the same compound, the viability, T/C [13] was 59.3%, the viability, T/C (second compound 0.316 µM, first compound 0.0999 µM) was 58.7% and the viability, T/C [15] was 52.6%. For the same compound, the viability, T/C (second compound 1 µM, first compound 0.000999 µM) was 41.9%, the viability, T/C (second compound 1 µM, first compound 0.00316 µM) was 67.6% and the viability, T/C (second compound 1 µM, first compound 0.00999 µM) was 67.9%. It also gave a viability, T/C [19] of 64.5%, a viability, T/C (second compound 1 µM, first compound 0.0999 µM) of 54.2% and a viability, T/C [21] of 47.1%. It also gave a viability, T/C (second compound 3.16 µM, first compound 0.000999 µM) of 41.4%, a viability, T/C (second compound 3.16 µM, first compound 0.00316 µM) of 34.2% and a viability, T/C (second compound 3.16 µM, first compound 0.00999 µM) of 37.4%. The viability, T/C [25] was 28.2%, the viability, T/C (second compound 3.16 µM, first compound 0.0999 µM) was 23.9% and the viability, T/C [27] was 33.8%. The viability, T/C (second compound 10 µM, first compound 0.000999 µM) was 19.3%, the viability, T/C (second compound 10 µM, first compound 0.00316 µM) was 25.4% and the viability, T/C (second compound 10 µM, first compound 0.00999 µM) was 18.3%. It also gave a viability, T/C [31] of 24.9%, a viability, T/C (second compound 10 µM, first compound 0.0999 µM) of 20.7% and a viability, T/C [33] of 17.9%.
